Results on one compound are retold here after article PMC4862498, “PI4 Kinase Is a Prophylactic but Not Radical Curative Target in Plasmodium vivax-Type Malaria Parasites” (Antimicrobial Agents and Chemotherapy, 2016).

Data set [1] concerns Plasmodium berghei luciferase sporozoites. Further details: method as in PMID 25147620. Conditions: single dose of 7.5 mg/kg after sporozoite infection; cited from earlier work.
In data set [2] the test system is P. cynomolgi hypnozoites in primary rhesus hepatocytes. Nature of the data set: In vitro liver-stage drug assay with P. cynomolgi, small forms (hypnozoites). Type of data set: cell-based, Plasmodium cynomolgi. The following applies: compound exposure 6 days, mean of several (9) independent assays, read-out: IC50 against hypnozoites (small forms). As to the method:
In vitro infections of primary rhesus hepatocytes with P. cynomolgi sporozoites were performed according to methods described previously by Zeeman et al. ([10]). At day 6 postinfection (p.i.), the assay mixtures were fixed and stained with anti-P. cynomolgi Hsp70 rabbit antiserum and a fluorescein isothiocyanate (FITC)-labeled secondary antibody (goat anti-rabbit). Plates were analyzed with the Operetta high-content imaging system, differentially counting hypnozoites and developing extraerythrocytic forms (EEFs), based on parasite size ([10]).
In vitro activity against P. cynomolgi liver stages was determined for both compounds. The numbers of small (hypnozoites) and large (developing EEFs) parasites were determined by using Operetta and image analysis of primary rhesus hepatocyte cultures infected with P. cynomolgi sporozoites and exposed to the compound for 6 days ([10]). […] IC50s were determined by using the least-squares nonlinear regression method (Prism) for small and large parasites. Data from several independent experiments were used to calculate the IC50s for the two compounds.

On the set-up of data set [3]: species or system mice and monkeys. Conditions: in vivo. The procedure:
(§1) Details of in vivo PK studies of KDU691 and LMV599 in CD-1 mice and monkeys can be found in the supplemental material.
Pharmacokinetic analysis.
Mean values of compound concentrations in plasma and liver were obtained from three animals at each time point and plotted against time to generate concentration-time profiles. Pharmacokinetic parameters were determined using WinNonlin Professional, version 5.0.1 (Pharsight, California, USA), by non-compartmental modeling using software model 200 for oral dosing. The oral bioavailability (F) was calculated as the ratio between the area under the curve from 0 to infinity (AUCinf) following oral administration and the AUCinf following intravenous administration corrected for dose (F = AUCp.o. * dosei.v. / AUCi.v. * dosep.o.).
PK-PD relationship analysis.
The compound concentration that inhibited 50% of P. cynomolgi growth (IC50) was used to calculate the threshold (TRE = 3*IC50) and the PK-PD indices. The Cmax/TRE was defined as the ratio of peak plasma concentration (Cmax) to the threshold (3*IC50), the AUC0-24/TRE was defined as the ratio of area under the curve from 0 to 24 hours (AUC0-24) to the threshold, and the percent time over threshold (%T>TRE) was defined as the percentage of the 24 hour period during which the compound concentration exceeded the […]
Table S3: Monkey stratification for the in vivo testing of KDU691. […]

On the set-up of data set [4]: species or system CD-1 mice. The following applies: mouse, in vivo. As to the method: as §1
Clinical chemistry and hematology
For the clinical analysis serum from 1 mL of clotted blood was analysed using the Cobas Integra 400 plus fully automated chemistry analyser. The following clinical parameters were determined: Alkaline phosphatase; Alanine Aminotransferase; Albumin: Aspartate aminotransfeasr; Bilirubin; Calcium; Cholesterol; Creatine kinase; Creatinine; C-reactive protein: Iron; Phosphate; Gamma-glutamyl transpeptidase; Glucose; Hemoglobin; Potassium; Lactate dehydrogenase; Sodium; Total protein; Urea Haematological parameters were determined from 1 mL EDTA-blood with a Sysmex XT-2000iV automated system. The following hematological parameters were determined: Basophilic granulocytes; Eosinophilic granulocytes; Erythrocytes; Hematocrit; Leucocytes; Leucocyte differentiation; Lymphocytes; Mean corpusculair hemoglobin; Mean corpusculair hemoglobin concentration; Mean corpusculair volume; Neutrophilic granulocytes; Red cell distribution width; Thrombocytes […]
For LC/MS/MS analysis, 50 µL of plasma samples were precipitated using 180 µL of acetonitrile:methanol:acetic acid (90:9.8:0.2) containing either related compound or warfarin as internal standard. After vortexing and centrifuging the mixture, the supernatant was removed and 5 µL of sample analyzed. […] In addition, quality control samples with three different concentrations were prepared in respective blank matrix and analyzed together with the unknown samples for validation purposes. Analyte quantitation was performed by LC/MS/MS using optimized conditions for each compound. […]
B), 3.92 – 4.0 min (85 – 35 % B) and 4.0 – 4.75 min (35 % B), with a flow rate of 1.0 mL/min, and a run time of 4.75 min. […] The most intense MRM transition (420.2/269) was used for quantitation using electrospray ionization in the positive mode. […]

In general, IC50 refers to the concentration that inhibits the measured activity by half. For `CNC(=O)c1ccc(-c2cnc3cnc(C(=O)N(C)c4ccc(Cl)cc4)cn23)cc1` [KDU691], the “causal prophylactic protection in mice” value in data set [1] is on record as “complete protection”. Moreover, the half-inhibitory concentration (IC50) in data set [2] was 180 ± 210 nM. In addition, in data set [3], the oral bioavailability is 52-66%. Besides, in data set [4], the “compound partitioning in the liver, Cmax over plasma” value turned out to be 1.7 × and the “compound partitioning in the liver, exposure over plasma” value came to 3.1 ×. Besides, in data set [4] (po, 25 mg/kg), the “F (oral bioavailability)” value is given as 60%.
